{
  "source": "patent US20110191867A1",
  "key": {"[1]": {"system": "commercial polyclonal antibody from rabbit", "assay": "ELISA control: commercial polyclonal antibody binding to peptide coated on a maleimide plate", "text": "A commercial peptide […] (HA11-peptide), which has been used as a recognition tag on recombinant proteins was used as a control and for testing of analysis of binding between a free core peptide and human antibodies. Due to restricted availability of at least N-terminal sequence the peptide would not be very effective in immunization against the viral as therapy. This peptide is known to be antigenic in animals under immunization conditions and antibodies including polyclonals from rabbit, mice etc."}, "natural human antibodies [2]": {"system": "natural human antibodies", "assay_type": "binding"}, "natural human antibodies [3]": {"system": "natural human antibodies"}, "[4]": {"system": "serum antibodies of test subjects"}, "[5]": {"system": "serum antibodies of test subjects", "remark": "listed apart in the source"}},
  "note": "Read-outs that look alike come from different tables or passages of the source.",
  "data": [
    {"substance": "CYPYDVPDYA [HA11-N Cys, commercial peptide used as a recognition tag on recombinant proteins, used as a control]", "values": [
      {"measurement": "binding of commercial polyclonal antibody from rabbit to the peptide", "setting": "[1]", "result": "effective binding"}
    ]},
    {"substance": "Biotin-aminohexanoyl-SKAYSNC [Peptide P1-N]", "values": [
      {"measurement": "immune response of the 6 sera, order of reactivity", "setting": "natural human antibodies [2]", "result": "reacted with sera in the order from strongest to weaker: 6, 3, 4, and 2, while 1 and 5 were weakly or non-reactive"},
      {"measurement": "immune response of the 6 sera, order of reactivity", "setting": "natural human antibodies [3]", "result": "sera 3 and 4 showed strongest immune response before serum 2, while sera 1, 5 and 6 were weakly or non-reactive"}
    ]},
    {"substance": "Biotin-aminocaproyl-CRPWVRGVC [Peptide 4B]", "values": [
      {"measurement": "antibody binding, cyclic peptide compared with corresponding linear peptide", "setting": "[4]; sera S1B-S8B, FIG. 8", "result": "bind generally more strongly antibodies than the corresponding linear peptide 3"}
    ]},
    {"substance": "Biotin-aminocaproyl-CRPRVRNICG-NH4 [Peptide 1C]", "values": [
      {"measurement": "comparison of the cyclic and linear peptide, reactivity with sera", "setting": "[5]", "result": "more reactive with all subjects except S3B"},
      {"measurement": "reaction with serum of test subject", "setting": "[5]", "result": "weaker reaction"},
      {"measurement": "reactivity with sera of test subjects", "setting": "[5]", "result": "Strong responses were observed from the serum of test subjects S5B an S7B"}
    ]},
    {"substance": "Biotin-aminocaproyl-CRPKVRDQC [Peptide 3B]", "values": [
      {"measurement": "reaction with serum of test subject", "setting": "[5]", "result": "weaker reaction"},
      {"measurement": "serum antibody response", "setting": "[4]; person S5B, vaccinated against influenza, FIG. 5", "result": "unusually high response"}
    ]},
    {"substance": "Biotin-aminohexanoyl-SYACKR [Peptide P2-N]", "values": [
      {"measurement": "immune response of the 6 sera, order of reactivity", "setting": "natural human antibodies [2]", "result": "reacted with sera similarily but reactions with serum 5 was weaker and the serum 6 showed the strongest reponse"},
      {"measurement": "immune response of the 6 sera, order of reactivity", "setting": "natural human antibodies [3]", "result": "sera 2 and 5 showed strongest immune response before sera 3, 4 and 6, while serum 1 showed weakest reaction"}
    ]}
  ]
}
